# Measurements published in ChEMBL document CHEMBL3352227, “Synthesis, antimycobacterial and antibacterial evaluation of l-[(1R, 2S)-2-fluorocyclopropyl]fluoroquinolone derivatives containing an oxime functional moiety” (Eur J Med Chem, 2014).
# Test system: Klebsiella pneumoniae
# Experiment: Antibacterial activity against Klebsiella pneumoniae 12-4 after 18 to 24 hrs by standard twofold serial dilution method
# Type: functional
row,Structure (SMILES),MIC
1,CO/N=C1/CCN(c2cc3c(cc2F)c(=O)c(C(=O)O)cn3[C@@H]2C[C@@H]2F)CC1N (some centres not stated),1 µg/mL

# Test system: Klebsiella pneumoniae
# Experiment: Antibacterial activity against Klebsiella pneumoniae 12-2 after 18 to 24 hrs by standard twofold serial dilution method
# Type: functional
row,Structure (SMILES),MIC
1,CO/N=C1/CCN(c2cc3c(cc2F)c(=O)c(C(=O)O)cn3[C@@H]2C[C@@H]2F)CC1N (some centres not stated),1 µg/mL

# Test system: Staphylococcus epidermidis
# Experiment: Antibacterial activity against methicillin-sensitive Staphylococcus epidermidis 12-8 after 18 to 24 hrs by standard twofold serial dilution method
# Type: functional
row,Structure (SMILES),MIC
1,CO/N=C1/CCN(c2cc3c(cc2F)c(=O)c(C(=O)O)cn3[C@@H]2C[C@@H]2F)CC1N (some centres not stated),2 µg/mL

# Test system: Staphylococcus epidermidis
# Experiment: Antibacterial activity against methicillin-sensitive Staphylococcus epidermidis 12-6 after 18 to 24 hrs by standard twofold serial dilution method
# Type: functional
row,Structure (SMILES),MIC
1,CO/N=C1/CCN(c2cc3c(cc2F)c(=O)c(C(=O)O)cn3[C@@H]2C[C@@H]2F)CC1N (some centres not stated),0.5 µg/mL

# Test system: Escherichia coli
# Experiment: Antibacterial activity against extended-spectrum beta-lactamase producing Escherichia coli 12-14 after 18 to 24 hrs by standard twofold serial dilution method
# Type: functional
row,Structure (SMILES),MIC
1,CO/N=C1/CCN(c2cc3c(cc2F)c(=O)c(C(=O)O)cn3[C@@H]2C[C@@H]2F)CC1N (some centres not stated),128 µg/mL

# Test system: Staphylococcus epidermidis
# Experiment: Antibacterial activity against methicillin-sensitive Staphylococcus epidermidis 12-1 after 18 to 24 hrs by standard twofold serial dilution method
# Type: functional
row,Structure (SMILES),MIC
1,CO/N=C1/CCN(c2cc3c(cc2F)c(=O)c(C(=O)O)cn3[C@@H]2C[C@@H]2F)CC1N (some centres not stated),0.5 µg/mL

# Test system: Escherichia coli
# Experiment: Antibacterial activity against extended-spectrum beta-lactamase producing Escherichia coli 12-15 after 18 to 24 hrs by standard twofold serial dilution method
# Type: functional
row,Structure (SMILES),MIC
1,CO/N=C1/CCN(c2cc3c(cc2F)c(=O)c(C(=O)O)cn3[C@@H]2C[C@@H]2F)CC1N (some centres not stated),> 128 µg/mL

# Test system: Klebsiella pneumoniae
# Experiment: Antibacterial activity against extended-spectrum beta-lactamase producin Klebsiella pneumoniae 12-3 after 18 to 24 hrs by standard twofold serial dilution method
# Type: functional
row,Structure (SMILES),MIC
1,CO/N=C1/CCN(c2cc3c(cc2F)c(=O)c(C(=O)O)cn3[C@@H]2C[C@@H]2F)CC1N (some centres not stated),> 128 µg/mL

# Test system: Staphylococcus epidermidis
# Experiment: Antibacterial activity against methicillin-sensitive Staphylococcus epidermidis 12-3 after 18 to 24 hrs by standard twofold serial dilution method
# Type: functional
row,Structure (SMILES),MIC
1,CO/N=C1/CCN(c2cc3c(cc2F)c(=O)c(C(=O)O)cn3[C@@H]2C[C@@H]2F)CC1N (some centres not stated),1 µg/mL

# Test system: Staphylococcus aureus
# Experiment: Antibacterial activity against methicillin-resistant Staphylococcus aureus 12-4 after 18 to 24 hrs by standard twofold serial dilution method
# Type: functional
row,Structure (SMILES),MIC
1,CO/N=C1/CCN(c2cc3c(cc2F)c(=O)c(C(=O)O)cn3[C@@H]2C[C@@H]2F)CC1N (some centres not stated),128 µg/mL

# Test system: Pseudomonas aeruginosa
# Experiment: Antibacterial activity against Pseudomonas aeruginosa 12-12 after 18 to 24 hrs by standard twofold serial dilution method
# Type: functional
row,Structure (SMILES),MIC
1,CO/N=C1/CCN(c2cc3c(cc2F)c(=O)c(C(=O)O)cn3[C@@H]2C[C@@H]2F)CC1N (some centres not stated),4 µg/mL

# Test system: Klebsiella pneumoniae
# Experiment: Antibacterial activity against extended-spectrum beta-lactamase producin Klebsiella pneumoniae 12-7 after 18 to 24 hrs by standard twofold serial dilution method
# Type: functional
row,Structure (SMILES),MIC
1,CO/N=C1/CCN(c2cc3c(cc2F)c(=O)c(C(=O)O)cn3[C@@H]2C[C@@H]2F)CC1N (some centres not stated),4 µg/mL

# Test system: Klebsiella pneumoniae
# Experiment: Antibacterial activity against extended-spectrum beta-lactamase producin Klebsiella pneumoniae 12-14 after 18 to 24 hrs by standard twofold serial dilution method
# Type: functional
row,Structure (SMILES),MIC
1,CO/N=C1/CCN(c2cc3c(cc2F)c(=O)c(C(=O)O)cn3[C@@H]2C[C@@H]2F)CC1N (some centres not stated),> 128 µg/mL

# Test system: Escherichia coli
# Experiment: Antibacterial activity against Escherichia coli ATCC 25922 after 18 to 24 hrs by standard twofold serial dilution method
# Type: functional
row,Structure (SMILES),MIC
1,CO/N=C1/CCN(c2cc3c(cc2F)c(=O)c(C(=O)O)cn3[C@@H]2C[C@@H]2F)CC1N (some centres not stated),0.25 µg/mL

# Test system: Staphylococcus aureus
# Experiment: Antibacterial activity against methicillin-sensitive Staphylococcus aureus 12-5 after 18 to 24 hrs by standard twofold serial dilution method
# Type: functional
row,Structure (SMILES),MIC
1,CO/N=C1/CCN(c2cc3c(cc2F)c(=O)c(C(=O)O)cn3[C@@H]2C[C@@H]2F)CC1N (some centres not stated),0.5 µg/mL

# Test system: Streptococcus pneumoniae
# Experiment: Antibacterial activity against Streptococcus pneumoniae ATCC 49619 after 18 to 24 hrs by standard twofold serial dilution method
# Type: functional
row,Structure (SMILES),MIC
1,CO/N=C1/CCN(c2cc3c(cc2F)c(=O)c(C(=O)O)cn3[C@@H]2C[C@@H]2F)CC1N (some centres not stated),1 µg/mL

# Test system: Mycobacterium tuberculosis
# Experiment: Antimycobacterial activity against Mycobacterium tuberculosis H37Rv ATCC 27294 by MABA method
# Type: functional
row,Structure (SMILES),MIC
1,CO/N=C1/CCN(c2cc3c(cc2F)c(=O)c(C(=O)O)cn3[C@@H]2C[C@@H]2F)CC1N (some centres not stated),1 µg/mL

# Test system: Staphylococcus aureus
# Experiment: Antibacterial activity against methicillin-resistant Staphylococcus aureus 12-2 after 18 to 24 hrs by standard twofold serial dilution method
# Type: functional
row,Structure (SMILES),MIC
1,CO/N=C1/CCN(c2cc3c(cc2F)c(=O)c(C(=O)O)cn3[C@@H]2C[C@@H]2F)CC1N (some centres not stated),64 µg/mL

# Test system: Streptococcus pneumoniae
# Experiment: Antibacterial activity against Streptococcus pneumoniae 12-18 after 18 to 24 hrs by standard twofold serial dilution method
# Type: functional
row,Structure (SMILES),MIC
1,CO/N=C1/CCN(c2cc3c(cc2F)c(=O)c(C(=O)O)cn3[C@@H]2C[C@@H]2F)CC1N (some centres not stated),2 µg/mL

# Test system: Klebsiella pneumoniae
# Experiment: Antibacterial activity against extended-spectrum beta-lactamase producin Klebsiella pneumoniae 12-4 after 18 to 24 hrs by standard twofold serial dilution method
# Type: functional
row,Structure (SMILES),MIC
1,CO/N=C1/CCN(c2cc3c(cc2F)c(=O)c(C(=O)O)cn3[C@@H]2C[C@@H]2F)CC1N (some centres not stated),16 µg/mL

# Test system: Staphylococcus aureus
# Experiment: Antibacterial activity against methicillin-sensitive Staphylococcus aureus 12-1 after 18 to 24 hrs by standard twofold serial dilution method
# Type: functional
row,Structure (SMILES),MIC
1,CO/N=C1/CCN(c2cc3c(cc2F)c(=O)c(C(=O)O)cn3[C@@H]2C[C@@H]2F)CC1N (some centres not stated),0.5 µg/mL

# Test system: Staphylococcus epidermidis
# Experiment: Antibacterial activity against methicillin-resistant Staphylococcus epidermidis 12-6 after 18 to 24 hrs by standard twofold serial dilution method
# Type: functional
row,Structure (SMILES),MIC
1,CO/N=C1/CCN(c2cc3c(cc2F)c(=O)c(C(=O)O)cn3[C@@H]2C[C@@H]2F)CC1N (some centres not stated),2 µg/mL

# Test system: Klebsiella pneumoniae
# Experiment: Antibacterial activity against Klebsiella pneumoniae 12-1 after 18 to 24 hrs by standard twofold serial dilution method
# Type: functional
row,Structure (SMILES),MIC
1,CO/N=C1/CCN(c2cc3c(cc2F)c(=O)c(C(=O)O)cn3[C@@H]2C[C@@H]2F)CC1N (some centres not stated),2 µg/mL

# Test system: Staphylococcus aureus
# Experiment: Antibacterial activity against methicillin-sensitive Staphylococcus aureus 12-4 after 18 to 24 hrs by standard twofold serial dilution method
# Type: functional
row,Structure (SMILES),MIC
1,CO/N=C1/CCN(c2cc3c(cc2F)c(=O)c(C(=O)O)cn3[C@@H]2C[C@@H]2F)CC1N (some centres not stated),0.5 µg/mL

# Test system: Staphylococcus aureus
# Experiment: Antibacterial activity against methicillin-resistant Staphylococcus aureus 12-5 after 18 to 24 hrs by standard twofold serial dilution method
# Type: functional
row,Structure (SMILES),MIC
1,CO/N=C1/CCN(c2cc3c(cc2F)c(=O)c(C(=O)O)cn3[C@@H]2C[C@@H]2F)CC1N (some centres not stated),64 µg/mL

# Test system: Escherichia coli
# Experiment: Antibacterial activity against Escherichia coli 12-1 after 18 to 24 hrs by standard twofold serial dilution method
# Type: functional
row,Structure (SMILES),MIC
1,CO/N=C1/CCN(c2cc3c(cc2F)c(=O)c(C(=O)O)cn3[C@@H]2C[C@@H]2F)CC1N (some centres not stated),2 µg/mL

# Test system: Staphylococcus aureus
# Experiment: Antibacterial activity against Staphylococcus aureus ATCC 25923 after 18 to 24 hrs by standard twofold serial dilution method
# Type: functional
row,Structure (SMILES),MIC
1,CO/N=C1/CCN(c2cc3c(cc2F)c(=O)c(C(=O)O)cn3[C@@H]2C[C@@H]2F)CC1N (some centres not stated),0.5 µg/mL

# Test system: Pseudomonas aeruginosa
# Experiment: Antibacterial activity against Pseudomonas aeruginosa 12-14 after 18 to 24 hrs by standard twofold serial dilution method
# Type: functional
row,Structure (SMILES),MIC
1,CO/N=C1/CCN(c2cc3c(cc2F)c(=O)c(C(=O)O)cn3[C@@H]2C[C@@H]2F)CC1N (some centres not stated),32 µg/mL

# Test system: Escherichia coli
# Experiment: Antibacterial activity against extended-spectrum beta-lactamase producing Escherichia coli 12-3 after 18 to 24 hrs by standard twofold serial dilution method
# Type: functional
row,Structure (SMILES),MIC
1,CO/N=C1/CCN(c2cc3c(cc2F)c(=O)c(C(=O)O)cn3[C@@H]2C[C@@H]2F)CC1N (some centres not stated),16 µg/mL

# Test system: Staphylococcus aureus
# Experiment: Antibacterial activity against methicillin-sensitive Staphylococcus aureus 12-2 after 18 to 24 hrs by standard twofold serial dilution method
# Type: functional
row,Structure (SMILES),MIC
1,CO/N=C1/CCN(c2cc3c(cc2F)c(=O)c(C(=O)O)cn3[C@@H]2C[C@@H]2F)CC1N (some centres not stated),0.5 µg/mL

# Test system: Staphylococcus epidermidis
# Experiment: Antibacterial activity against methicillin-resistant Staphylococcus epidermidis 12-1 after 18 to 24 hrs by standard twofold serial dilution method
# Type: functional
row,Structure (SMILES),MIC
1,CO/N=C1/CCN(c2cc3c(cc2F)c(=O)c(C(=O)O)cn3[C@@H]2C[C@@H]2F)CC1N (some centres not stated),8 µg/mL

# Test system: Escherichia coli
# Experiment: Antibacterial activity against extended-spectrum beta-lactamase producing Escherichia coli 12-2 after 18 to 24 hrs by standard twofold serial dilution method
# Type: functional
row,Structure (SMILES),MIC
1,CO/N=C1/CCN(c2cc3c(cc2F)c(=O)c(C(=O)O)cn3[C@@H]2C[C@@H]2F)CC1N (some centres not stated),> 128 µg/mL
